| melting point [°C] | Compound |
| --- | --- |
| 127 to 128 | Cc1cnc2c(-c3ccc(F)cc3)c(-c3ccncc3)[nH]c2c1 [Example 1, 3-(4-Fluoro-phenyl)-6-methyl-2-pyridin-4-yl-1H-pyrrolo[3,2-b]pyridine] |
| 208 to 209 | COCn1c(-c2ccncc2)c(-c2ccc(F)cc2)c2ncc(C)cc21 [Example 2, 3-(4-Fluoro-phenyl)-1-methoxymethyl-6-methyl-2-pyridin-4-yl-1H-pyrrolo[3,2-b]pyridine] |
| 169 to 170 | COCOn1c(-c2ccncc2)c(-c2ccc(F)cc2)c2ncccc21 [Example 5, 3-(4-Fluoro-phenyl)-1-methoxymethoxy-2-pyridin-4-yl-1H-pyrrolo[3,2-b]pyridine] |
| 237 to 238 | COC(=O)CC(=O)Nc1cc(-c2[nH]c3cc(C)cnc3c2-c2ccc(F)cc2)ccn1 [Example 8, N-{4-[3-(4-Fluoro-phenyl)-6-methyl-1H-pyrrolo[3,2-b]pyridin-2-yl]-pyridin-2-yl}-malonamic acid methyl ester] |
| 255 to 256 | FCCn1c(-c2ccnc(Nc3cccc(F)c3)c2)c(-c2ccc(F)cc2)c2ncccc21 [Example 9, {4-[1-(2-Fluoro-ethyl)-3-(4-fluoro-phenyl)-1H-pyrrolo[3,2-b]pyridin-2-yl]-pyridin-2-yl}-(3-fluoro-phenyl)-amine] |
| 157 to 158 | NC(=O)c1cc(-c2[nH]c3cccnc3c2-c2ccc(F)cc2)ccn1 [Example 10, 4-[3-(4-Fluoro-phenyl)-1H-pyrrolo[3,2-b]pyridin-2-yl]-pyridine-2-carboxylic acid amide] |
| 169 to 170 | Fc1ccc(-c2c(-c3ccncn3)[nH]c3cccnc23)cc1 [Example 11, 3-(4-Fluoro-phenyl)-2-pyrimidin-4-yl-1H-pyrrolo[3,2-b]pyridine] |
| 151 to 152 | COCC(C)Nc1nccc(-c2c(-c3ccc(F)cc3)c3ncccc3n2COC)n1 (centres unmarked) [Example 12, {4-[3-(4-Fluoro-phenyl)-1-methoxymethyl-1H-pyrrolo[3,2-b]pyridin-2-yl]-pyrimidin-2-yl}-(2-methoxy-1-methyl-ethyl)-amine] |

— US8084395B2, “4-aza indole derivatives and their use as fungicides” (Syngenta Crop Protection, Inc., priority 2007, dated 2011)
